The values that follow come from patent US10214508B2, “Nitrogen-containing heterocyclic compound” (Takeda Pharmaceutical Company Limited, priority 2014, dated 2019).

In the test the target is T1, human M1 receptor (hCHRM1) (Homo sapiens, UniProt P11229).
T1 construct: expressed in transfected cells
T1 sequence (P11229 1-460): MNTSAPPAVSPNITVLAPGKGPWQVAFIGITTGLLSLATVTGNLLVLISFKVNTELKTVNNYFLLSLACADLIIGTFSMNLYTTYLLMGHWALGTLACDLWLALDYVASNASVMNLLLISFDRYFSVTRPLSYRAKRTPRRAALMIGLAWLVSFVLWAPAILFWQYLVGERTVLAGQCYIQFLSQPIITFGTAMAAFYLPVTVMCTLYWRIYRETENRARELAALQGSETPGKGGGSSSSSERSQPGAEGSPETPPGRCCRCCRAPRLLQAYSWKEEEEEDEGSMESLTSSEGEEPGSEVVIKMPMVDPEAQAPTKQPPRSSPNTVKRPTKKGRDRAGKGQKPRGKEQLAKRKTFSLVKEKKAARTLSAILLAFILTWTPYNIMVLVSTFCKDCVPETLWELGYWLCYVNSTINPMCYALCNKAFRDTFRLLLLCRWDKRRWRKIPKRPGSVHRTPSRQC
Description: Measurement of M1 receptor positive allosteric modulator (M1PAM) activity, calcium fluorescence (FLIPRtetra). Type of test: cell-based. The following applies: 10 μM test compound with acetylcholine at EC20 (final 0.6-0.8 nM); 100% = acetylcholine 1 μM, 0% = DMSO; CHO-K1 cells expressing hCHRM1. Put shortly: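 CHO-K1 cells stably expressing hM1 were Fluo-4-loaded; compound added with acetylcholine at EC20 (0.6-0.8 nM final), calcium fluorescence read 1 min on FLIPRtetra. Activity scaled between DMSO (0%) and 1 μM acetylcholine (100%); inflection point of concentration–response reported as IP.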
In the case of `Cc1nc(C(=O)N[C@H]2COCC[C@@H]2O)cc(Cc2ccc(-n3cccn3)cc2)c1Cl` [Example 99, 1,5-anhydro-2-(((5-chloro-6-methyl-4-(4-(1H-pyrazol-1-yl)benzyl)pyridin-2-yl)carbonyl)amino)-2,4-dideoxy-L-threo-pentitol], the “activity (%) at 10 μM” value was 96%. Take `COc1nc(C(=O)N[C@H]2CCC[C@@H]2O)cc(Cc2ccc(-n3cccn3)cc2)c1C` [Example 93, N-((1S,2S)-2-hydroxycyclopentyl)-6-methoxy-5-methyl-4-(4-(1H-pyrazol-1-yl)benzyl)pyridine-2-carboxamide]: the “activity (%) at 10 μM” value was determined as 105%. The result for `O=C(N[C@H]1COCC[C@@H]1O)c1cc(Cc2ccc(-n3cccn3)cc2)c(C(F)F)cn1` [Example 39, 1,5-anhydro-2,4-dideoxy-2-(((5-(difluoromethyl)-4-(4-(1H-pyrazol-1-yl)benzyl)pyridin-2-yl)carbonyl)amino)-L-threo-pentitol] reads 100%. The result for `Cc1cnc(C(=O)N[C@H]2CCC[C@@H]2O)cc1Cc1ccc(-n2cccn2)cc1` [Example 50, N-((1S,2S)-2-hydroxycyclopentyl)-5-methyl-4-(4-(1H-pyrazol-1-yl)benzyl)pyridine-2-carboxamide] reads 105%; that for `Cc1cnc(C(=O)N[C@H]2CCC[C@@H]2O)cc1Cc1ccc(-n2cccn2)cc1` [Example 5, N-((1S,2S)-2-hydroxycyclopentyl)-5-methyl-4-(4-(1H-pyrazol-1-yl)benzyl)pyridine-2-carboxamide], 91%; that for `Cc1cnc(C(=O)NC2CCC(F)(F)CC2)cc1Cc1ccc(-c2ccn(C)n2)cc1` [Example 33, N-(4,4-difluorocyclohexyl)-5-methyl-4-(4-(1-methyl-1H-pyrazol-3-yl)benzyl)pyridine-2-carboxamide], 71%.

Take `Cc1cnc(C(=O)NC2COC2)cc1Cc1ccc(-c2ccn(C)n2)cc1` [Example 26, 5-methyl-4-(4-(1-methyl-1H-pyrazol-3-yl)benzyl)-N-(oxetan-3-yl)pyridine-2-carboxamide]: the “activity (%) at 10 μM” value was found to be 59%.

On to `COc1nc(C(=O)N[C@H]2COCC[C@@H]2O)cc(Cc2ccc(-c3ccn(C)n3)cc2)c1C` [Example 89, 1,5-anhydro-2,4-dideoxy-2-(((6-methoxy-5-methyl-4-(4-(1-methyl-1H-pyrazol-3-yl)benzyl)pyridin-2-yl)carbonyl)amino)-L-threo-pentitol], for which the “activity (%) at 10 μM” value was 101%. In the case of `COc1cnc(C(=O)N[C@H]2CCCC[C@@H]2O)cc1Cc1ccc(Br)cc1` [Example 62, 4-(4-bromobenzyl)-N-((1S,2S)-2-hydroxycyclohexyl)-5-methoxypyridine-2-carboxamide], the “activity (%) at 10 μM” value came out at 96%. Regarding `O=C(N[C@H]1COCC[C@@H]1O)c1cc(Cc2ccc(-n3cccn3)cc2)c(C2CC2)cn1` [Example 47, 1,5-anhydro-2-(((5-cyclopropyl-4-(4-(1H-pyrazol-1-yl)benzyl)pyridin-2-yl)carbonyl)amino)-2,4-dideoxy-L-threo-pentitol], the “activity (%) at 10 μM” value is recorded as 96%.

Regarding `O=C(N[C@H]1CCCC[C@@H]1O)c1cc(Cc2ccc(-n3cccn3)cc2F)c(Cl)cn1` [Example 54, 5-chloro-4-(2-fluoro-4-(1H-pyrazol-1-yl)benzyl)-N-((1S,2S)-2-hydroxycyclohexyl)pyridine-2-carboxamide], the “activity (%) at 10 μM” value is 99%. The result for `Cc1nc(C(=O)N[C@H]2CCCC[C@@H]2O)cc(Cc2ccc(Cl)nc2)c1C` [Example 73, 4-((6-chloropyridin-3-yl)methyl)-N-((1S,2S)-2-hydroxycyclohexyl)-5,6-dimethylpyridine-2-carboxamide] reads 94%; that for `Cc1nc(C(=O)N[C@H]2CCCC[C@@H]2O)cc(Cc2ccc(Br)cc2)c1C` [Example 77, 4-(4-bromobenzyl)-N-((1S,2S)-2-hydroxycyclohexyl)-5,6-dimethylpyridine-2-carboxamide], 100%; that for `Cc1nc(C(=O)N[C@H]2CCC[C@@H]2O)cc(Cc2ccc(-c3ccn(C)n3)cc2)c1Cl` [Example 97, 5-chloro-N-((1S,2S)-2-hydroxycyclopentyl)-6-methyl-4-(4-(1-methyl-1H-pyrazol-3-yl)benzyl)pyridine-2-carboxamide], 93%.

Turning to `Cc1nc(C(=O)N[C@H]2COCC[C@@H]2O)cc(Cc2ccc(-n3cccn3)cc2)c1C` [Example 78, 1,5-anhydro-2,4-dideoxy-2-(((5,6-dimethyl-4-(4-(1H-pyrazol-1-yl)benzyl)pyridin-2-yl)carbonyl)amino)-L-threo-pentitol], the “activity (%) at 10 μM” value amounted to 104%.

For the compound `COc1cnc(C(=O)N[C@H]2COCC[C@@H]2O)cc1Cc1ccc(-n2cccn2)cc1` [Example 56, 1,5-anhydro-2,4-dideoxy-2-(((5-methoxy-4-(4-(1H-pyrazol-1-yl)benzyl)pyridin-2-yl)carbonyl)amino)-L-threo-pentitol], the “activity (%) at 10 μM” value turned out to be 103%. Consider `COc1nc(C(=O)N[C@H]2CCC[C@@H]2O)cc(Cc2ccc(-c3ccn(C)n3)cc2)c1C` [Example 90, N-((1S,2S)-2-hydroxycyclopentyl)-6-methoxy-5-methyl-4-(4-(1-methyl-1H-pyrazol-3-yl)benzyl)pyridine-2-carboxamide], for which the “activity (%) at 10 μM” value turned out to be 106%. Consider `Cc1cnc(C(=O)NC2CC(F)(F)C2)cc1Cc1ccc(-c2ccn(C)n2)cc1` [Example 30, N-(3,3-difluorocyclobutyl)-5-methyl-4-(4-(1-methyl-1H-pyrazol-3-yl)benzyl)pyridine-2-carboxamide], for which the “activity (%) at 10 μM” value was found to be 85%.

For `O=C(N[C@H]1COCC[C@@H]1O)c1cc(Cc2ccc(-n3cccn3)cc2)c(OC(F)F)cn1` [Example 95, 1,5-anhydro-2,4-dideoxy-2-(((5-(difluoromethoxy)-4-(4-(1H-pyrazol-1-yl)benzyl)pyridin-2-yl)carbonyl)amino)-L-threo-pentitol], the “activity (%) at 10 μM” value stood at 99%. As to `Cc1cnc(C(=O)NC2CCCOC2)cc1Cc1ccc(-c2ccn(C)n2)cc1` (centres unmarked) [Example 32, 5-methyl-4-(4-(1-methyl-1H-pyrazol-3-yl)benzyl)-N-(tetrahydro-2H-pyran-3-yl)pyridine-2-carboxamide], the “activity (%) at 10 μM” value is reported as 101%. The value for `Cc1nc(C(=O)N[C@H]2CCCC[C@@H]2O)cc(Cc2ccc(C#N)cc2)c1Cl` [Example 66, 5-chloro-4-(4-cyanobenzyl)-N-((1S,2S)-2-hydroxycyclohexyl)-6-methylpyridine-2-carboxamide] was 105%; that for `Cc1cnc(C(=O)NC2(CO)CCCC2)cc1Cc1ccc(-c2ccn(C)n2)cc1` [Example 20, N-(1-(hydroxymethyl)cyclopentyl)-5-methyl-4-(4-(1-methyl-1H-pyrazol-3-yl)benzyl)pyridine-2-carboxamide] was 75%; that for `Cc1nc(C(=O)N[C@H]2COCC[C@@H]2O)cc(Cc2ccc(-c3ccn(C)n3)nc2)c1C` [Example 86, 1,5-anhydro-2,4-dideoxy-2-(((5,6-dimethyl-4-((6-(1-methyl-1H-pyrazol-3-yl)pyridin-3-yl)methyl)pyridin-2-yl)carbonyl)amino)-L-threo-pentitol] was 95%. Take `Cc1nc(C(=O)N[C@H]2COCC[C@@H]2O)cc(Cc2ccc(-c3ccn(C)n3)cc2)c1C` [Example 82, 1,5-anhydro-2,4-dideoxy-2-(((5,6-dimethyl-4-(4-(1-methyl-1H-pyrazol-3-yl)benzyl)pyridin-2-yl)carbonyl)amino)-L-threo-pentitol]: the “activity (%) at 10 μM” value was determined as 103%. The value for `Cc1cnc(C(=O)N[C@H]2CCCC[C@@H]2O)cc1Cc1ccc(-c2ccn(C)n2)cc1` [Example 9, N-((1S,2S)-2-hydroxycyclohexyl)-5-methyl-4-(4-(1-methyl-1H-pyrazol-3-yl)benzyl)pyridine-2-carboxamide] was 91%. For the compound `Cc1cnc(C(=O)N[C@H]2CCCC[C@@H]2O)cc1Cc1ccc(-c2cn(C)nc2C)cc1` [Example 15, 4-(4-(1,3-dimethyl-1H-pyrazol-4-yl)benzyl)-N-((1S,2S)-2-hydroxycyclohexyl)-5-methylpyridine-2-carboxamide], the “activity (%) at 10 μM” value turned out to be 107%. The result for `Cc1cnc(C(=O)NC2CCOCC2O)cc1Cc1ccc(-c2ccn(C)n2)cc1` (centres unmarked) [Example 21, 1,5-anhydro-2,3-dideoxy-3-(((5-methyl-4-(4-(1-methyl-1H-pyrazol-3-yl)benzyl)pyridin-2-yl)carbonyl)amino)pentitol] reads 89%; that for `COc1nc(C(=O)N[C@H]2CCCC[C@@H]2O)cc(Cc2ccc(-c3ccn(C)n3)cc2)c1C` [Example 88, N-((1S,2S)-2-hydroxycyclohexyl)-6-methoxy-5-methyl-4-(4-(1-methyl-1H-pyrazol-3-yl)benzyl)pyridine-2-carboxamide], 99%. The result for `COc1cnc(C(=O)N[C@H]2CCCC[C@@H]2O)cc1Cc1ccc(-c2cnn(C)c2)nc1` [Example 59, N-((1S,2S)-2-hydroxycyclohexyl)-5-methoxy-4-((6-(1-methyl-1H-pyrazol-4-yl)pyridin-3-yl)methyl)pyridine-2-carboxamide] reads 90%.
